From US10098900B2, “Pharmaceutical compositions and their use for treatment of cancer and autoimmune diseases” (ZHEJIANG DTRM BIOPHARMA CO. LTD., priority 2015, dated 2018)

What was measured:
TMD-8 lymphoma xenograft = assay: Inhibition of tumor growth in vivo, TMD-8 lymphoma xenograft SCID mouse model; details: TMD-8, Oral, BID
Procedure: (§1) Inhibition Study of Tumor Growth In Vivo:
(§2) SCID mice or nude mice (weighing about 18 g at the beginning of the experiment) were randomly divided into groups by the software in order to achieve close average weights between groups and control the bias within the allowable range. The mice were injected BTK cell lines (TMD-8, WSU-DLCL2 and DoHH-2) for tumor formation. Inhibitors were administered orally once or twice a day, a total of 14 days, 21 days or 28 days. Body weights and tumor volume were recorded.
(§3) Xenograft Tumor Models Inoculated with TMD-8, or DoHH2, or WSU-DLCL2 Tumor Cell Lines:
(§4) TMD-8 is a sensitive human diffuse large B-cell lymphoma cell line, and DoHH2 is a more difficult to treat human follicular lymphoma cell line, while WSU-DLCL2 is a multi-drug resistant (MDR) human non-Hodgkin's lymphoma cell line. Drug combination therapies provide better efficacies in all three tumor models than single targeted agent alone.
(§5) The TMD-8, DoHH2, WSU-DLCL2 tumor cells were maintained in vitro as a suspension culture in RPMI-1640 medium supplemented with 10% heat inactivated fetal calf serum at 37° C. in an atmosphere of 5% CO2 in air. The tumor cells were routinely subcultured twice weekly. The cells growing in an exponential growth phase were harvested and counted for tumor inoculation. Each mouse was inoculated subcutaneously at the right flank with the tumor cells (10×10^6) in 0.2 ml of PBS with Matrigel (1:1) for tumor development. The treatments were started after the average tumor size reached approximately 100-200 mm^3. Each group consisted of 6-10 tumor-bearing mice. The testing article (vehicle, compound or combination) was orally administrated to the mice according to the predetermined doses for 14-days or 21-days. Animal body weight and tumor volume were measured every 2- or 3-days throughout the treatment.

[1] = system: DoHH-2 lymphoma xenograft; assay: Inhibition of tumor growth in vivo, DoHH-2 lymphoma xenograft SCID mouse model; details: BID, 21 days
Procedure: as §1, §2, §3, §4, §5

[2] = 28-day toxicity/toxicokinetic (TK) study in rats
From the text: Toxicity and toxicokinetic (TK) studies of the compounds can be performed by well known methods.

Structure (SMILES): C=CC(=O)N1CC[C@@H](n2nc(-c3ccc(Oc4c(F)c(F)cc(F)c4F)cc3F)c3c(N)ncnc32)C1 [Compound 3, 1-((R)-3-(4-amino-3-(2-fluoro-4-(2,3,5,6-tetrafluorophenoxy)phenyl)-1H-pyrazolo[3,4-d]pyrimidin-1-yl)pyrrolidin-1-yl)prop-2-en-1-one]
- Antitumor effect (%) (TMD-8 lymphoma xenograft; FIG. 2, 14 days, 10 mg/kg): 63%
- Antitumor effect (%) (TMD-8 lymphoma xenograft; FIG. 2, 14 days, 30 mg/kg): 89%
- Antitumor effect (%) (TMD-8 lymphoma xenograft; FIG. 3, 21 days, 5 mg/kg): 90%
- Antitumor effect (%) (TMD-8 lymphoma xenograft; FIG. 3, 21 days, 10 mg/kg): 96%
- Antitumor effect (%) (TMD-8 lymphoma xenograft; FIG. 4, 21 days, 10 mg/kg): 77%
- Antitumor effect (%) (TMD-8 lymphoma xenograft; FIG. 12, 14 days, 5 mg/kg): 75%
- Antitumor effect (%) ([1]; FIG. 6, Oral, 5 mg/kg): 28.8%
- Antitumor effect (%) ([1]; FIG. 6, Oral, 10 mg/kg): 20.1%
- Antitumor effect (%) ([1]; FIG. 6, Oral, 30 mg/kg): 35.6%
- Antitumor effect (%) ([1]; FIG. 7, Oral, 5 mg/kg): 15.9%
- difference in drug exposure between Day 1 and Day 28 ([2]; 28-day rat and dog studies): no significant difference
- difference in drug exposure between male and female ([2]; 28-day rat and dog studies): no significant difference
- AUC compared with ibrutinib ([2]; rats): significantly higher
